Experimental data published in article PMC6770577, “TRPM6 N-Terminal CaM- and S100A1-Binding Domains” (International Journal of Molecular Sciences, 2019).

Molecular target: T1, S100A1 (Homo sapiens, UniProt P23297)
T1 construct: made in house; host or cells: E. coli BL21
T1 sequence (P23297 1-94): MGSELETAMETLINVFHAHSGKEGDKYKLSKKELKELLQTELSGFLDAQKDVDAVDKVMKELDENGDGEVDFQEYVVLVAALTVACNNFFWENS
Assay: Steady-state fluorescence anisotropy binding assay, FITC-labelled TRPM6np peptides titrated with S100A1
Conditions: 1 μM N-terminally FITC-labelled peptide titrated with 100 μM S100A1, 50 mM Tris-HCl pH 7.5, 150 mM NaCl, 2 mM CaCl2, room temperature, at least five measurements, read-out: KD, equilibrium dissociation constant of the TRPM6np/S100A1 complex
Description: Steady-state fluorescence anisotropy experiments were performed at room temperature on a photon counting spectrometer PC1 (ISS Inc., Champaign, Illinois, USA). TRPM6npWT and its mutants were dissolved in a buffer containing 50 mM Tris-HCl (pH 7.5), 150 mM NaCl, and 2 mM CaCl2 for a final concentration of 1 μM. The samples were titrated in a 2-mm path cuvette with increasing aliquots of 100 μM CaM or S100A1. Fluorescence was excited at 495 nm; the intensity of emission in parallel (III) and perpendicular (I﬩) orientations to the direction of the polarised excitation was obtained at 520 nm by switching the emission polariser. The steady-state fluorescence anisotropy value (r) was calculated from the equation r = (III − I﬩) / (III + 2I﬩). […] Q represents the quantum yield ratio of the bound to the free peptide, calculated from fluorescence lifetimes (τ) according to equation Q = τbound/τfree. […]
Lifetimes were evaluated at room temperature in a drop placed on a coverslip and inserted into an inverted confocal microscope IX83 (Olympus, Tokyo, Japan) equipped with time-correlated single photon counting electronics and cooled GaAsP hybrid detectors (all PicoQuant, Berlin, Germany). […] fluorescence was excited at 485 nm by an LDH-485 picosecond laser (PicoQuant, Berlin, Germany). […]

Row | SMILES | Kd [µM]
1 | CC[C@H](C)[C@H](NC(=O)[C@H](CC(C)C)NC(=S)Nc1ccc2c(c1)C(=O)OC21c2ccc(O)cc2Oc2cc(O)ccc21)C(=O)NCC(=O)N[C@@H](CCCNC(=N)N)C(=O)N[C@@H](C)C(=O)N[C@@H](Cc1ccc(O)cc1)C(=O)N[C@@H](CCCNC(=N)N)C(=O)N[C@@H](CO)C(=O)N[C@@H](CC(N)=O)C(=O)N[C@@H](Cc1ccc(O)cc1)C(=O)N[C@H](C(=O)N[C@@H](C)C(=O)N[C@@H](C)C(=O)N[C@@H](Cc1c[nH]cn1)C(=O)N[C@@H](Cc1ccccc1)C(=O)N[C@@H](CCCNC(=N)N)C(=O)O)[C@@H](C)O [K532A/R531A] | 50.2
2 | CC[C@H](C)[C@H](NC(=O)[C@H](CC(C)C)NC(=S)Nc1ccc2c(c1)C(=O)OC21c2ccc(O)cc2Oc2cc(O)ccc21)C(=O)NCC(=O)N[C@@H](CCCNC(=N)N)C(=O)N[C@@H](C)C(=O)N[C@@H](Cc1ccc(O)cc1)C(=O)N[C@@H](CCCNC(=N)N)C(=O)N[C@@H](CO)C(=O)N[C@@H](CC(N)=O)C(=O)N[C@@H](Cc1ccc(O)cc1)C(=O)N[C@H](C(=O)N[C@@H](CCCNC(=N)N)C(=O)N[C@@H](C)C(=O)N[C@@H](Cc1c[nH]cn1)C(=O)N[C@@H](Cc1ccccc1)C(=O)N[C@@H](CCCNC(=N)N)C(=O)O)[C@@H](C)O [K532A] | 24.8
